# Paper PMC6712002, “Comprehensive in vitro characterization of PD-L1 small molecule inhibitors” (Scientific Reports, 2019)
# “Also recorded” adds a separate entry of the source. Bridge positions count the residues as written; N and C are the ends. Square brackets hold non-standard residues; d marks the D form. Peptide text beside a SMILES is read from it. NMeNle = CCCC[C@H](NC)C(=O)O; NMeA = CN[C@@H](C)C(=O)O
# Experiments:
# HepG2 cells = experiment: HepG2 cell viability, CCK-8 assay; type: cell-based, human; conditions: HepG2, 24 h; for effect on cell viability: various concentrations tested; for concentration significantly reducing cell viability / concentration without significant effect on cell viability: CCK-8
# Experimental: We also evaluated the acute cytotoxicity of the BMS and Aurigene compounds by testing the effects of compound treatment on the viability of HepG2 cell line. […] The purpose of using HepG2 cells, thus, would allow for evaluation of the parent molecules and potential metabolites for cytotoxicity. The cells were treated with the compounds for 24 h and then the cell viability was assessed by the CCK-8 assay (Fig. 7C).
# The acute cytotoxicity of the test compounds was also evaluated by administering the test compounds to human hepatoma (HepG2) cells and assessing their viability (metabolic viability) using the CCK-8 assay (based on WST-8). HepG2 cells are commonly used in the early screening stages for new chemical entities, and the CCK-8 assay has been well established as a sensitive and reliable indicator for cellular metabolic activity (viability) for this purpose. HepG2 cells were obtained from ATCC (HB-8065; Manassas, VA) and maintained in DMEM culture medium in a water-jacketed incubator (5% CO2, 37 °C). […] At this time point, cells were treated with WST-8 based on the manufacturer’s protocol (CCK-8 kit, Dojindo Molecular Technologies, Rockville, MD). Cell viability calculations were also carried out according to the manufacturer’s protocol, which included accounting for potential interference from test compounds, and comparisons to appropriate controls. GraphPad Prism was used for data analysis and graphical representation.
# Jurkat cells = experiment: Jurkat cell viability, CellTiter-Glo; type: cell-based; conditions: 24 h; for effect on cell viability: concentrations tested; for concentration significantly decreasing cell viability: vs DMSO control
# [1] = tested on: PD-1 negative Jurkat T cells; experiment: Counter-screen NFAT luciferase reporter in PD-1 negative Jurkat T cells; type: cell-based; conditions: 24.5 μM and 49 μM
# Fc-B7-1 = biological target: T1, Fc-B7-1 (Homo sapiens, UniProt P33681); experiment: SPR binding to captured Fc-B7-1 (specificity)
# T1 sequence (P33681 35-242 limits assumed): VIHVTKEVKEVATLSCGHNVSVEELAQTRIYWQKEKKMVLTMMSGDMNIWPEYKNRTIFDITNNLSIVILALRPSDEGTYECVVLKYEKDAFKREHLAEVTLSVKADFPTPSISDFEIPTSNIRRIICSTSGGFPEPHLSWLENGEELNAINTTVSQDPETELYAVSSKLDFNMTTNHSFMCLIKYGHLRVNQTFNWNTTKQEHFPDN
# CHO cells = experiment: CHO cell viability, CellTiter-Glo; conditions: 24 h; for concentration significantly reducing cell viability: vs DMSO control
# [2] = tested on: peripheral blood mononuclear cells (PBMCs); type: cell-based, human
# PD-1/PD-L1 binding [3] = biological target: T2, PD-1/PD-L1 binding (Homo sapiens, UniProt Q9NZQ7); experiment: PD-1/PD-L1 ELISA competition assay (PD-L1 coated, biotinylated PD-1); type: biochemical; design: purchased R&D Systems (Fc-PD-L1); Acro Biosystems (biotinylated PD-1)
# Target sequence in this assay (Q9NZQ7 19-239 limits assumed): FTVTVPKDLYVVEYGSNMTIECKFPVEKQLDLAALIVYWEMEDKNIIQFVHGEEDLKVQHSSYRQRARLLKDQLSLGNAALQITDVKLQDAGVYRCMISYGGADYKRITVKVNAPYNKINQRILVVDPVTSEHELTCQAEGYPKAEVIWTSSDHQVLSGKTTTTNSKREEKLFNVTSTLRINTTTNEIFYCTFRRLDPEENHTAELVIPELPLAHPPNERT
# [4] = tested on: peripheral blood mononuclear cells (PBMCs); experiment: IFN-γ production by SEB-stimulated PBMCs (ELISA); type: cell-based, human
# PD-1/PD-L1 interface = PD-1/PD-L1 interface (Homo sapiens, UniProt Q9NZQ7); experiment: Binding to the PD-1/PD-L1 interface (method not given)
# PD-1/PD-L1 = conditions: read-out: IC50 (HTRF); original disclosure; cited from earlier work
# [5] = tested on: PD-1/NFAT reporter Jurkat cells co-cultured with TCR activator/PD-L1-CHO cells; experiment: Bioluminescent PD-1/PD-L1 cell-based assay (NFAT luciferase reporter)
# PD-L1 [6] = biological target: T3, PD-L1 (Homo sapiens, UniProt Q9NZQ7); experiment: 1D NMR STD and WaterLOGSY binding; conditions: 12 µM PD-L1, 200 µM compound
# T3 construct: human PD-L1 (residues 18–134) was cloned into pET21b vector; made in house
# Experimental: In addition, we also employed 1D NMR-based methods, saturation transfer difference (STD) and WaterLOGSY techniques, to unambiguously rule-out the binding of Aurigene-1 to PD-L1 protein. STD and WaterLOGSY are popular ligand-based approaches to detect the binding of protein-protein inhibitors.
# NMR samples contained 12 µM of protein, 200 µM of compound in 1x PBS (phosphate-buffered saline buffer, pH 7.5) and 0.25 mM 2,2-dimethyl-2-silapentane-5-sulfonate-d6 sodium salt (DSS-d6) as an NMR internal reference in 95/5% H2O/D2O or 100% D2O. […] NMR spectroscopy was performed at the Nanuc NMR Centre on a 2.2 K pumped-800 MHz Oxford magnet updated to a Bruker Neo-Advance IV console equipped with a 5 mm cryoprobe and SampleJet robotics.
# Fig. S3: STD and WaterLOGSY experiments of PD-L1 binding to Aurigene-1. Blue - 1D spectrum of Aurigene-1, Red and Green -STD and WaterLOGSY spectra respectively of 12 μM of PD-L1 with 200 μM of Aurigene-1
# PD-1/PD-L1 binding [7] = biological target: T2, PD-1/PD-L1 binding; experiment: PD-1/PD-L1 ELISA competition assay, reverse configuration (PD-1 coated, biotinylated PD-L1); type: biochemical; conditions: biotin tagged PD-L1
# Target sequence in this assay (Q9NZQ7 19-238 limits assumed): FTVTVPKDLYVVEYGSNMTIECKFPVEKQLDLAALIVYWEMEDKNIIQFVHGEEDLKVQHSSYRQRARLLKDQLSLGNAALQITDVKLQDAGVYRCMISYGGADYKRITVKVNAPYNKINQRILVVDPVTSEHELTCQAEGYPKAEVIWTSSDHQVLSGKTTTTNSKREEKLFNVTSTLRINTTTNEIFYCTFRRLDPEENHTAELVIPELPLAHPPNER
# human PD-1 protein = human PD-1 protein (Homo sapiens, UniProt Q15116); experiment: DSF of PD-1; type: binding
# PD-L1 [8] = biological target: T3, PD-L1; experiment: Microscale thermophoresis (MST) binding to labeled PD-L1; conditions: labeled PD-L1 60 nM
# mouse splenocytes = tested on: mouse splenocytes; design: method as in earlier work; conditions: CFSE proliferation assay with recombinant PD-L1; cited from earlier work
# PD-L1 [9] = biological target: T3, PD-L1; experiment: Differential scanning fluorimetry (DSF) of PD-L1; type: binding; conditions: PD-L1 10 µM, compound 50 µM
# Fc-PD-L1 = Fc-PD-L1 (Homo sapiens, UniProt Q9NZQ7); experiment: SPR binding to captured Fc-PD-L1; conditions: Fc-PD-L1 captured on Protein A chip, 25 °C
# Chain of Fc-PD-L1 (Q9NZQ7 19-238 limits assumed): as above
# T3 sequence (Q9NZQ7 18-134): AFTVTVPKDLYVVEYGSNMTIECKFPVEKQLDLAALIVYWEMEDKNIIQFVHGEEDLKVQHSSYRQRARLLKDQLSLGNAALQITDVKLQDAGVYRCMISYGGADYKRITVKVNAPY
# Chain of human PD-1 protein (Q15116 25-288): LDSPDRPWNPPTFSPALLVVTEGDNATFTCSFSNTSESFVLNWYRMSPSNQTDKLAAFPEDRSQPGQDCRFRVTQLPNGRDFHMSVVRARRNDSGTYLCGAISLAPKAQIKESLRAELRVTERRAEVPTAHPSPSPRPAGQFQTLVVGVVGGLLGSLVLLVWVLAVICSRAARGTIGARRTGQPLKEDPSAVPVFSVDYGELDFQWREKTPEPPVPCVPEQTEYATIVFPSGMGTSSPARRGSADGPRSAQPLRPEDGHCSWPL
# Chain of PD-1/PD-L1 interface (Q9NZQ7 19-290): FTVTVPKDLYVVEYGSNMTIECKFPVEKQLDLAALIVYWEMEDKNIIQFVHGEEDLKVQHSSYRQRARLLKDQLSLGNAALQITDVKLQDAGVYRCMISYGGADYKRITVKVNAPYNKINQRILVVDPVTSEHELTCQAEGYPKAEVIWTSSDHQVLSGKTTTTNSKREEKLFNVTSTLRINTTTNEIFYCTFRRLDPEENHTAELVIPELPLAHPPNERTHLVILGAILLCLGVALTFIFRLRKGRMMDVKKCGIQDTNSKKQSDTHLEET
compound,measurement,setting,value
CCCC[C@H]1C(=O)N(C)[C@@H](CCCC)C(=O)N[C@@H](CCCNC(=N)N)C(=O)N[C@H](C(=O)NCC(N)=O)CSCC(=O)N[C@@H](Cc2ccccc2)C(=O)N(C)[C@@H](C)C(=O)N[C@@H](CC(N)=O)C(=O)N2CCC[C@H]2C(=O)N[C@@H](Cc2cnc[nH]2)C(=O)N[C@@H](CC(C)C)C(=O)N[C@@H](CO)C(=O)N[C@@H](Cc2c[nH]c3ccccc23)C(=O)N[C@@H](CO)C(=O)N[C@@H](Cc2c[nH]c3ccccc23)C(=O)N1C [BMSpep-57] ({CH2CO}-F[NMeA]NPHLSWSW[NMeNle][NMeNle]RCG-NH2; thioether N-14),effect on cell viability,HepG2 cells,did not show any effects on the cell viability
same,effect on cell viability,Jurkat cells,did not show any effect on the cell viability
COc1cc(OCc2cccc(-c3ccccc3)c2C)cc(OC)c1CNCCO [BMS-103],concentration significantly reducing cell viability,HepG2 cells,≥ 12.2 µM
same,concentration without significant effect on cell viability,HepG2 cells,up to 2.4 µM
same,concentration completely abolishing cell viability,Jurkat cells,≥ 2.4 µM
same,concentration significantly decreasing cell viability,Jurkat cells,0.4 µM
same,luminescence of PD-1 negative Jurkat cells,[1],substantially low
same,binding with captured Fc-B7-1,Fc-B7-1,"None of the BMS inhibitors (BMSpep-57, BMS-103 and BMS-142) showed binding"
same,concentration significantly reducing cell viability,CHO cells,≥ 12.2 µM
same,IL-2 production vs positive control,[2],significantly lower levels of IL-2 than the positive control
CCCC[C@H]1C(=O)N(C)[C@@H](CCCC)C(=O)N[C@@H](CCCNC(=N)N)C(=O)N[C@H](C(=O)NCC(N)=O)CSCC(=O)N[C@@H](Cc2ccccc2)C(=O)N(C)[C@@H](C)C(=O)N[C@@H](CC(N)=O)C(=O)N2CCC[C@H]2C(=O)N[C@@H](Cc2c[nH]cn2)C(=O)N[C@@H](CC(C)C)C(=O)N[C@@H](CO)C(=O)N[C@@H](Cc2c[nH]c3ccccc23)C(=O)N[C@@H](CO)C(=O)N[C@@H](Cc2c[nH]c3ccccc23)C(=O)N1C [BMSpep-57] ({CH2CO}-F[NMeA]NPHLSWSW[NMeNle][NMeNle]RCG-NH2; thioether N-14; N-terminus and C-terminus assumed),inhibition at 0.3 µM,PD-1/PD-L1 binding [3]; at 300 nM,98.1%
Cc1ccc2ccccc2c1CN1CCN(c2c([N+](=O)[O-])c(=O)n(C)c3ccccc23)CC1 [Compound A],concentration without significant effect on cell viability,HepG2 cells,≤ 90 µM
same,fold IFN-γ production vs untreated cells,[4],approximately 1.2 fold
same,binding to the PD-1/PD-L1 interface,PD-1/PD-L1 interface,did not bind to the PD-1/PD-L1 interface
COc1cc(OCc2cccc(-c3ccccc3)c2C#N)cc(OC)c1CNCCO [BMS-142],concentration significantly reducing cell viability,HepG2 cells,≥ 48 µM
same,IC50,PD-1/PD-L1,6 to 100 nM
same,concentration without any effect on cell viability,Jurkat cells,up to 2.4 µM
same,concentration significantly decreasing cell viability,Jurkat cells,≥ 12 µM
same,NFAT activity vs cells only,"[5]; 12.3 μM, 2.4 μM and […]",no change in NFAT activity
same,NFAT activity (interaction with PD-1/PD-L1),[5]; 24 µM and 48 µM,"sometimes interacted weakly with PD-1/PD-L1, although this was not statistically significant"
same,binding with captured Fc-B7-1,Fc-B7-1,"None of the BMS inhibitors (BMSpep-57, BMS-103 and BMS-142) showed binding"
same,concentration without any effect on cell viability,CHO cells,up to 2.4 µM
same,concentration significantly reducing cell viability,CHO cells,≥ 12 µM
CC(O)[C@H](NC(=O)N[C@@H](CC(N)=O)c1nc([C@@H](N)CO)no1)C(=O)O (some centres unmarked) [Aurigene-1],"binding to PD-L1 (STD, WaterLOGSY NMR)",PD-L1 [6],does not bind to PD-L1 protein
same,effect on cell viability,HepG2 cells,did not show any effects on the cell viability
same,inhibition of PD-1/PD-L1 binding,PD-1/PD-L1 binding [3]; 7.8 µM to 500 µM,did not inhibit the PD-1/PD-L1 binding
same,"inhibition of PD-1/PD-L1 binding, reverse configuration",PD-1/PD-L1 binding [7],did not show inhibition of PD-1/PD-L1 binding
same,effect on cell viability,Jurkat cells,did not show any effect on the cell viability
same,thermal stability of PD-1 protein,human PD-1 protein,did not increase the thermal stability of PD-1 protein; also recorded: did not induce thermal stability to the human PD-1 protein
same,binding to PD-L1 (MST fluorescence response),PD-L1 [8],no change in fluorescence
same,rescue of mouse splenocyte proliferation,mouse splenocytes,97%
same,NFAT activity,"[5]; 55.5 μM, 27.8 μM, 13.9 μM, 2.8 μM and 1.4 μM",none of these concentrations facilitated NFAT activity
same,shift of Tm of PD-L1,PD-L1 [9],0.7 ± 0.1 °C
same,Rmax (maximum binding response),Fc-PD-L1,0.78 ± 0.36 RU
same,effect on IL-2 production,[2],cannot enhance IL-2 production
